Measurements reported in patent publication US20220289794A1, “SYNTHETIC ANTIMICROBIAL PEPTIDES” (priority 2019, published 2022).

What was measured:
[1] = system: P. aeruginosa (ATCC 10145); assay: Broad-spectrum activity against Gram-Negative bacteria (MIC); format: cell-based; details: Table 16, Gram-negative panel
[2] = system: Enterococcus faecalis ATCC 51575; details: E. faecalis ATCC 51575
B. subtilis (ATCC-6633) = assay: Broad-spectrum activity against Gram-Positive bacteria (MIC); format: cell-based; set-up: unit not given here
[3] = system: Klebsiella pneumoniae (ATCC BAA-1705); details: Table 16, Gram-negative panel
[4] = system: Enterococcus faecium ATCC 27270; details: E. faecium ATCC 27270
[5] = system: Enterococcus faecium ATCC 700221; details: E. faecium ATCC 700221
[6] = system: Enterococcus faecalis ATCC 29212; details: E. faecalis ATCC 29212
[7] = system: Pseudomonas aeruginosa (ATCC 27883); details: P. aeruginosa ATCC 27883
[8] = system: Klebsiella pneumoniae ATCC 13883; details: Table 16, Gram-negative panel
[9] = system: P. aeruginosa (ATCC BAA-1744); assay: Broad-spectrum activity against Gram-Negative bacteria (MIC); format: cell-based; details: Table 16, Gram-negative panel
B. cereus (ATCC-13061) = assay: Broad-spectrum activity against Gram-Positive bacteria (MIC); format: cell-based; set-up: unit not given here
[10] = system: Methicillin-resistant Staphylococcus aureus MRSA (ATCC BAA-1556); details: MRSA ATCC BAA-1556
[11] = system: A. baumannii (ATCC BAA-1605); assay: Broad-spectrum activity against Gram-Negative bacteria (MIC); format: cell-based; details: Table 16, Gram-negative panel
S. aureus ATCC 29213 = details: S. aureus ATCC 29213
[12] = system: Streptococcus pneumoniae ATCC 51938; details: S. pneumoniae ATCC 51938
[13] = system: Streptococcus pneumoniae ATCC 49619; details: S. pneumoniae ATCC 49619
E. coli (ATCC BAA-2452) = assay: Broad-spectrum activity against Gram-Negative bacteria (MIC); format: cell-based; details: Table 16, Gram-negative panel
[14] = system: Escherichia coli (ATCC 25922); details: E. coli ATCC 25922

Row | Substance | MIC P. aeruginosa (ATCC 10145) [1] [µg/mL] | Broad-spectrum activity E. faecalis (ATCC 51575) [2] | Broad-spectrum activity B. subtilis (ATCC-6633) (B. subtilis (ATCC-6633)) | MIC K. pneumonia (ATCC BAA-1705) [3] [µg/mL] | Broad-spectrum activity E. faecium (ATCC 27270) [4] | Broad-spectrum activity E. faecium (ATCC 700221) [5] | Broad-spectrum activity E. faecalis (ATCC 29212) [6] | MIC P. aeruginosa ATCC 27883 [7] [µg/mL] | MIC K. pneumonia (ATCC 13883) [8] [µg/mL] | MIC P. aeruginosa (ATCC BAA-1744) [9] [µg/mL] | Broad-spectrum activity B. cereus (ATCC-13061) (B. cereus (ATCC-13061)) | MIC MRSA ATCC BAA-1556 [10] [µg/mL] | MIC A. baumannii (ATCC BAA-1605) [11] [µg/mL] | MIC S. aureus ATCC 29213 (S. aureus ATCC 29213) [µg/mL] | Broad-spectrum activity S. pneumoniae (ATCC 51938) [12] | Broad-spectrum activity S. pneumoniae (ATCC 49619) [13] | MIC E. coli (ATCC BAA-2452) (E. coli (ATCC BAA-2452)) [µg/mL] | MIC E. coli ATCC 25922 [14] [µg/mL]
1 | c[arg-Arg-Arg-Arg-Dip-Trp-Dip] [IFX-094] | 50 | 12.5 | 3.1 | 12.5 | 6.2 | 12.5 | 12.5 | 6.2 | 50 | 25 | 6.2 | 3.1 | 12.5 | 3.1 | 25 | 25 | 12.5 | 12.5
2 | c[Arg-Arg-Arg-arg-Dip-Trp-Dip] [IFX-091] | 25 | 12.5 | 1.5 | 12.5 | 3.1 | 6.2 | 6.2 | 12.5 | 50 | 25 | 3.1 | 3.1 | 12.5 | 3.1 | 12.5 | 50 | 12.5 | 12.5
3 | c[arg-arg-Arg-Arg-naI-Trp-naI] [IFX-136] | 50 | 6.2 | 1.5 | 25 | 3.1 | 3.1 | 6.2 | 32 | 50 | 25 | 3.1 | 3.1 | 12.5 | 1.5 | 12.5 | 25 | 12.5 | 16
4 | c[arg-arg-arg-arg-NaI-trp-NaI] [IFX-141] | 25 | 12.5 | 1.5 | > 50 | 6.2 | 6.2 | 6.2 | 32 | 50 | 25 | 3.1 | 6.2 | 12.5 | 3.1 | 12.5 | 50 | 25 | 32
5 | c[arg-Arg-Arg-Arg-Dip-Dip-Dip] [IFX-066] | 25 | 12.5 | 1.5 | 12.5 | 3.1 | 3.1 | 6.2 | 12.5 | 50 | 12.5 | 6.2 | 1.5 | 6.2 | 3.1 | 12.5 | 25 | 12.5 | 12.5
